Test results taken from publication PMC11203919, “Heat Stress and Microbial Stress Induced Defensive Phenol Accumulation in Medicinal Plant Sparganium stoloniferum” (International Journal of Molecular Sciences, 2024).

Target: T1, SsC4H (Sparganium stoloniferum, UniProt A0AAU8GF87)
T1 construct: gene C4H; pYeDP60 in yeast WAT11 culture, not purified
Test: substrate feeding of yeast culture, LC-MS/MS of p-coumaric acid
Type: cell-based
Settings: 0.5 mM substrate, 16 °C, 12 h; yeast WAT11

T1 sequence (A0AAU8GF87 entry or part of it): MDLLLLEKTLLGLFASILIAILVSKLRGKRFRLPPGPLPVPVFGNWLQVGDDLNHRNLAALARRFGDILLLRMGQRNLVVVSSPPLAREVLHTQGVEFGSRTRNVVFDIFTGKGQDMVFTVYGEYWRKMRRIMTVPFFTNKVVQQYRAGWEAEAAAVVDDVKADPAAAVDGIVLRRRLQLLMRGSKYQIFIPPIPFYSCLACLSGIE

`O=C(O)/C=C/c1ccccc1` [trans-cinnamic acid] was tested, and the “substrate feeding of yeast culture, LC-MS/MS of p-coumaric acid” value was “Upon adding trans-cinnamic acid to the SsC4H-pYeDP60-WAT11 culture, hydroxylation occurred to produce p-coumaric acid”.
